Source: ChEMBL document CHEMBL1201862, “PubChem BioAssay data set” (2004)
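48-hour exposure; five concentrations; linearly interpolated endpoints. Abbreviation: GI50, concentration required for 50% inhibition of growth.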 Activity calls are given as the source filed them. Rule as the data show it: active = GI50 up to about 1.1 µM and inactive = higher.

Legend:
Assay in all cases: NCI anticancer screen, dose series, 48 h
CAKI-1 = tested on: CAKI-1
OVCAR-4 = tested on: OVCAR-4
MDA-MB-435 = tested on: MDA-MB-435
RXF 393 = tested on: RXF 393
OVCAR-8 = tested on: OVCAR-8
U-251 = tested on: U-251
COLO 205 = tested on: COLO 205
SK-OV-3 = tested on: SK-OV-3
SN12C = tested on: SN12C
MOLT-4 = tested on: MOLT-4
SK-MEL-2 = tested on: SK-MEL-2
Hs-578T = tested on: Hs-578T
SR = tested on: SR
MDA-N = tested on: MDA-N
OVCAR-5 = tested on: OVCAR-5
KM12 = tested on: KM12
ACHN = tested on: ACHN
UO-31 = tested on: UO-31
M14 = tested on: M14
M19-MEL = tested on: M19-MEL

Row | SMILES | GI50 (CAKI-1) | GI50 (OVCAR-4) | GI50 (MDA-MB-435) | GI50 (RXF 393) | GI50 (OVCAR-8) | GI50 (U-251) | GI50 (COLO 205) | GI50 (SK-OV-3) | GI50 (SN12C) | GI50 (MOLT-4) | GI50 (SK-MEL-2) | GI50 (Hs-578T) | GI50 (SR) | GI50 (MDA-N) | GI50 (OVCAR-5) | GI50 (KM12) | GI50 (ACHN) | GI50 (UO-31) | GI50 (M14) | GI50 (M19-MEL)
1 | CC1(C)SC2C(C(=O)O)N=C(Cc3ccccc3)N2C1C(=O)O (stereo not given) | 43.7 µM (inactive) | 92.3 µM (inactive) | 40.7 µM (inactive) | 34.6 µM (inactive) | 37.3 µM (inactive) | 32.7 µM (inactive) | > 100 µM (inactive) | 41.2 µM (inactive) | 35 µM (inactive) | > 100 µM (inactive) | > 100 µM (inactive) | 29.4 µM (inactive) | 33.9 µM (inactive) | 49 µM (inactive) | 36.8 µM (inactive) | > 100 µM (inactive) | 38.9 µM (inactive) | 19.4 µM (inactive) | 37.2 µM (inactive) | –
2 | COc1ccccc1/N=N/C(C(=O)c1ccccc1)C(=O)c1ccccc1 | 25.2 µM (inactive) | 9.53 µM (inactive) | – | – | 21.5 µM (inactive) | 18.5 µM (inactive) | 33.3 µM (inactive) | 45.1 µM (inactive) | 17.2 µM (inactive) | 9.48 µM (inactive) | 20.7 µM (inactive) | – | – | – | 32.1 µM (inactive) | 29.2 µM (inactive) | 21.6 µM (inactive) | 12.8 µM (inactive) | 15 µM (inactive) | 15 µM (inactive)
3 | CC(C)(C)OC(=O)NCC(c1c[nH]c2cc(Br)ccc12)c1c[nH]c2cc(Br)ccc12 | 26.9 µM (inactive) | 16.7 µM (inactive) | 16.8 µM (inactive) | 17.6 µM (inactive) | 18.3 µM (inactive) | 17.3 µM (inactive) | 15.6 µM (inactive) | 15.8 µM (inactive) | 18.5 µM (inactive) | 34.6 µM (inactive) | 18.4 µM (inactive) | 19.8 µM (inactive) | > 100 µM (inactive) | 18.5 µM (inactive) | 15.5 µM (inactive) | 18.3 µM (inactive) | 16.7 µM (inactive) | 17.5 µM (inactive) | 18.7 µM (inactive) | –
4 | CN1CCN(Cc2nc3c(s2)CCc2sccc2-3)CC1 | 37.7 µM (inactive) | > 100 µM (inactive) | 54.2 µM (inactive) | 75.5 µM (inactive) | 94.6 µM (inactive) | > 100 µM (inactive) | > 100 µM (inactive) | > 100 µM (inactive) | > 100 µM (inactive) | 77.8 µM (inactive) | > 100 µM (inactive) | > 100 µM (inactive) | 36.1 µM (inactive) | 48.6 µM (inactive) | > 100 µM (inactive) | > 100 µM (inactive) | > 100 µM (inactive) | 59.8 µM (inactive) | 28.4 µM (inactive) | –
5 | CC(=O)OC1OC(c2ccoc2)C[C@@]12C1CCC3O[C@]3(C)[C@]1(C)C[C@H](OC(C)=O)[C@H]2C (stereo not given in full) | > 75 µM (inactive) | 59.2 µM (inactive) | > 75 µM (inactive) | > 75 µM (inactive) | > 75 µM (inactive) | > 75 µM (inactive) | > 75 µM (inactive) | > 75 µM (inactive) | > 75 µM (inactive) | > 75 µM (inactive) | > 75 µM (inactive) | > 75 µM (inactive) | > 75 µM (inactive) | > 75 µM (inactive) | > 75 µM (inactive) | > 75 µM (inactive) | > 75 µM (inactive) | 70.8 µM (inactive) | > 75 µM (inactive) | –
6 | Cc1cc(Cl)nc2nc(Cl)c(N)cc12 | 0.354 µM (active) | 2.64 µM (inactive) | 2.22 µM (inactive) | 8.2 µM (inactive) | 2.67 µM (inactive) | 2.05 µM (inactive) | 2.06 µM (inactive) | 21.3 µM (inactive) | 1.9 µM (inactive) | 4.6 µM (inactive) | 14.9 µM (inactive) | 10.4 µM (inactive) | 2.88 µM (inactive) | 1.88 µM (inactive) | 17 µM (inactive) | 5.32 µM (inactive) | 5.38 µM (inactive) | 3.92 µM (inactive) | 8.67 µM (inactive) | –
7 | O=C(NCCC1([N+](=O)[O-])CCN(C(=O)c2ccccc2)CC1)c1ccccc1 | 42.3 µM (inactive) | 52 µM (inactive) | 26.7 µM (inactive) | 67 µM (inactive) | > 100 µM (inactive) | > 10 µM (inactive) | 53.7 µM (inactive) | > 100 µM (inactive) | > 100 µM (inactive) | > 100 µM (inactive) | > 100 µM (inactive) | > 100 µM (inactive) | > 100 µM (inactive) | 47.1 µM (inactive) | > 100 µM (inactive) | > 100 µM (inactive) | > 100 µM (inactive) | 55.2 µM (inactive) | > 100 µM (inactive) | –
8 | CC1CNC(c2ccc(-c3nc(-c4ccc(C5=NC(C)CN5)cc4)nc(N(C)C)n3)cc2)=N1 (stereo not given) | 17.6 µM (inactive) | 1.55 µM (inactive) | 1.46 µM (inactive) | 3.22 µM (inactive) | 2.12 µM (inactive) | 0.991 µM (active) | 1.1 µM (active) | 1.91 µM (inactive) | 1.47 µM (inactive) | 0.681 µM (active) | 2.01 µM (inactive) | 3.21 µM (inactive) | 0.653 µM (active) | 1.85 µM (inactive) | 3.24 µM (inactive) | 2.23 µM (inactive) | 3.01 µM (inactive) | 7.33 µM (inactive) | 3.21 µM (inactive) | –
9 | CC(C)(C)c1ccc(OC2CCO2)cc1 (stereo not given) | 38.1 µM (inactive) | 34.2 µM (inactive) | – | – | 38.6 µM (inactive) | 18.7 µM (inactive) | 29.4 µM (inactive) | > 100 µM (inactive) | 18.7 µM (inactive) | 38.1 µM (inactive) | – | – | – | – | 32.7 µM (inactive) | 25.9 µM (inactive) | 34.5 µM (inactive) | 58.2 µM (inactive) | 42.6 µM (inactive) | 23.1 µM (inactive)
10 | C#Cc1nc(N)c2ncn(C3OC(COS(N)(=O)=O)C(O)C3O)c2n1 (stereo not given) | 0.0559 µM (active) | < 0.0193 µM (active) | 0.016 µM (active) | < 0.0179 µM (active) | 0.0188 µM (active) | 0.0213 µM (active) | 0.0277 µM (active) | < 0.01 µM (active) | 0.0172 µM (active) | < 0.0181 µM (active) | 0.0101 µM (active) | 0.0379 µM (active) | < 0.01 µM (active) | < 0.0168 µM (active) | < 0.0148 µM (active) | < 0.0193 µM (active) | < 0.0146 µM (active) | < 0.0187 µM (active) | < 0.0426 µM (active) | –
11 | COc1ccc2c(c1)CC1C3(CCCCC23)CC[N+]1(C)C (stereo not given) | > 100 µM (inactive) | > 100 µM (inactive) | 84.9 µM (inactive) | > 100 µM (inactive) | > 100 µM (inactive) | 66.7 µM (inactive) | > 100 µM (inactive) | > 100 µM (inactive) | 38.7 µM (inactive) | > 100 µM (inactive) | > 100 µM (inactive) | > 100 µM (inactive) | > 100 µM (inactive) | > 100 µM (inactive) | > 100 µM (inactive) | > 100 µM (inactive) | > 100 µM (inactive) | > 100 µM (inactive) | > 100 µM (inactive) | –
